According to patent US20080124813A1, “Bead-based radioimmunoassay” (Phoenix Pharmaceuticals, Inc., priority 2006, published 2008):
Blank lines part the entries; values can stand above or below the substance they belong to. No end group written: not given here.

Experiments:
anti-ghrelin antibody [1] = assay: Time course of I^125-ghrelin binding to anti-ghrelin antibody-conjugated bead; conditions: room temp (21° C.), 0-249 min, FIG. 3
Method: A particular embodiment of the immunoassay method for dissociable capture of radiolabeled ghrelin peptide by solid phase linked antibody can be performed as follows:
1. Combine 100 ul of I^125-ghrelin (specific activity 3.15 p mole/ml) prepared in accordance with Example 1.3 (Example 1 step 3) to each of eight aliquots of 50 μL antibody-conjugated beads and to each of two aliquots of 50 μL glycine-conjugated beads prepared in accordance with Example 2B suspended in stock solution (0.01 M Tris (pH 7.4), 0.1% NaN3, 0.1% w/v bovine serum albumin (BSA), 0.15M NaCl, and 0.001M EDTA.
2. Incubate antibody-conjugated beads at room temp (21° C.) for 0, 5, 10, 15, 30, 60, 120, and 249 min.
3. To each incubated mixture of antibody-conjugated beads and I^125-ghrelin add 1.5 ml RIA buffer (150 mM NaCl, 100 mM sodium phosphate, 1% BSA and 1% Triton X-100), mix, and centrifuge for 5 minutes at 17,000× g. Aspirate off the supernatant. 4. Wash once with 1 ml RIA buffer. Aspirate off the supernatant
5. Measure and record counts per minute for each assay tube.
The results shown are the means of duplicates. The counts from gamma counter represent the specific binding by anti-ghrelin antibody. The binding curve was generated using a non-linear least square fitting program in GraphPad Prism (version 2.01).

insulysin (IDE) = insulysin (IDE) (Homo sapiens, UniProt P14735); assay: Peptide degradation by insulysin (IDE), read out by bead-based RIA; type: biochemical; conditions: for degradation kinetics with insulysin (IDE): 37° C., 0-15 min, means of duplicates, FIGS. 10 and 11
From the text: Now referring primarily to FIGS. 10, 11 and 12 and Example 12, an embodiment of the inventive immunoassay system (1) allows for the coincident measurement of the degradation of a plurality of target particles (7) contained in the same immunoassay sample (6). […] Similarly, now referring to FIG. 11, the inventive immunoassay method can be used to determine the decreased concentration of amylin in an immunoassay sample (6) upon degradation by IDE.
1. Prepare separately solutions of 200 pg/mL of human glucagon (adjust with I^125-glucagon) and 40 pg/mL of human amylin (adjust with I^125-amylin) each in a total volume of 2 mL.
2. Prepare a digestion solution of insulysin (IDE) 6.2 μg in 3.1 mL of 0.15M NaCl, 25 mM Tris, pH7.5. Aliquote 0.4 mL to a tube for total of 12 tubes of digestion solution.
3. Add to the digestion solution with above 0.4 mL of human glucagon or amylin solution.
4. Incubate at 37° C. for a time interval at 15, 10, 7, 5, 3, 1 min and a tube without the incubation.
5. At the indicated time, add 40 μL protease inhibitor (bacitracin 2 mg/ml final concentration) and 300 μL of 10 mM ammonium chloride to stop the reaction.
6. Transfer 50 μL antibody conjugated bead prepared in accordance with Example 2B, 120 μL RIA buffer, 50 μl aprotinin and 80 μL of digested I^125-labeled peptide solution to 1 mL conical tube and incubate with agitation for 30 min.
7. Spin 5 min at 16000×g to pellet the beads and discard supernatant.
8. Add 1 mL of RIA buffer and centrifuge at 1700×g for 5 min.
9. Remove the supernatant and count the CPM of the pellet by gamma counter.

anti-ghrelin antibody [2] = assay: 60 μl small volume competitive radiolabeled ghrelin binding by bead-linked antibody (bead-based RIA); conditions: competition with I^125-ghrelin, total volume about 60 μl; stated as comparable to conventional RIA of Example 1
Method: A particular embodiment of the immunoassay method for competitive dissociable capture of radiolabeled ghrelin peptide by solid phase linked antibody to determine ghrelin peptide concentration in a 60 μl small volume immunoassay sample can be performed as follows:
1. Combine 25 μl of antibody immobilized beads in stock solution prepared in accordance with Example 2B to about 25 μl human plasma or 10 μl-25 μl standard solution.
2. Mix resulting combination and incubate 6 hours at room temperature.
3. Add 10 μl 125I-peptide. Mix and incubate overnight (16-18 hrs.) at 4° C. 4. Add RIA buffer. Mix and centrifuge for 5 minutes at 1,700 g. Aspirate off the supernatant (except total count tubes). 5. Wash once with 1 ml RIA buffer. Aspirate off the supernatant (except total count tubes).
6. Measure and record counts per minute for each assay tube.
The plasma concentration was interpolated from standard curves and indicate about 18.7 pg in 150 μl solution. The amounts of isotope labeled-ligands applied (as indicated in total counts tubes) was twice that of the conventional RIA as described in Example 1. […]

anti-ghrelin antibody [3] = assay: 150 μl small volume competitive radiolabeled ghrelin binding by bead-linked antibody (bead-based RIA); conditions: competition with I^125-ghrelin, total volume about 150 μl; stated as comparable to conventional RIA of Example 1
Method: A particular embodiment of the immunoassay method for competitive dissociable capture of radiolabeled ghrelin peptide by solid phase linked antibody to determine ghrelin peptide concentration in a 150 μl small volume immunoassay sample can be performed as follows:
1. Combine 25 μl of antibody conjugated beads in stock solution prepared in accordance with Example 2B to 50 μl human plasma or 50 μl standard solution.
2. Mix the resulting combination and incubate 6 hrs at 4° C.
3. Add 25 μl of I^125-ghrelin prepared in accordance with Example 1.3 and 50 μl RIA buffer.
4. Incubate 16-18 hrs. at 4° C.
5. Add 1.5 ml RIA buffer to incubated mixture and centrifuge for 5 minutes at 17,000× g. Aspirate off the supernatant (except total counts tubes). 6. Wash once with 1 ml RIA buffer. Aspirate off the supernatant (except total counts tubes).
7. Measure and record counts per minute for each assay tube.
The plasma concentration was interpolated from standard curves and indicate about 18.7 pg in 150 ul solution. The amounts of isotope labeled-ligands applied (as indicated in total counts tubes) was twice that of the conventional RIA described in Example 1. […] The total assay time was about 24 hours for this embodiment of the inventive immunoassay method. […]

Substance: I^125-ghrelin: I^125-labeled ghrelin peptide used as labeled particle (GSSFLSPEHQRVQQRKESKKPPAKLQPR; ends and bridges not checked; also: 125I label, position not given here; UniProt Q9UBU3 24-51, looked up)
- time to saturation binding to antibody-conjugated beads (anti-ghrelin antibody [1]): two hour saturation binding

- degradation kinetics with insulysin (IDE) (insulysin (IDE)): pseudo-first order degradation
Substance: amylin (KCNTATCATQRLANFLVHSSNNFGAILSSTNVGSNTY; not fully specified (C-terminus, bridges); cysteine pairing not given here; also: 125I label, position not given here; UniProt P10997 34-70, looked up) [human amylin, human amylin, adjusted with I^125-amylin, digested with insulysin]

- IC50 (anti-ghrelin antibody [2]): around 400 pg/ml
- IC50 (anti-ghrelin antibody [3]): about 400 pg/ml
Substance: ghrelin (GSSFLSPEHQRVQQRKESKKPPAKLQPR; ends and bridges not checked; UniProt Q9UBU3 24-51, looked up) [human peptide ghrelin, 28 residues in the naturally occurring form; target particle of the immunoassay]

- degradation kinetics with insulysin (IDE) (insulysin (IDE)): pseudo-first order degradation
- concentration in immunoassay sample upon degradation with insulysin (insulysin (IDE); increasing duration of incubation with IDE at 37° C., FIG. 10): decreases
Substance: glucagon
